The text below walks through data of ChEMBL document CHEMBL4007488, “Amphiphilic Indole Derivatives as Antimycobacterial Agents: Structure-Activity Relationships and Membrane Targeting Properties” (J Med Chem, 2017).

In brackets after ≈: the same amount, converted by molar mass. Activity calls are given as the source filed them. The rule behind the calls is not given here.

In one series the test system is HepG2. The series is described as follows: Cytotoxicity against human HepG2 cells assessed as reduction in cell viability after 48 hrs by MTT assay. The series is classed as cell-based. To be noted: HepG2, 48 h. Background: Tetrazolium assays rely on reduction of a dye to a coloured formazan, in cell work by metabolically active cells.
The test system of series [1] is Lipid bilayer. The series is described as follows: Binding affinity to DMPG vesicles assessed as melting transition temperature by differential scanning calorimetric analysis (reference value: 21.09 to 23.32 degC).
Series [2] can be described thus: Selectivity index, ratio of IC50 for human HepG2 cells to MIC50 for Mycobacterium tuberculosis H37Rv ATCC 27294. The series is classed as toxicity. The following applies: read-out: Selectivity Index.
The next series has as its system Staphylococcus aureus. The series is described as follows: Antibacterial activity against Staphylococcus aureus ATCC 29213 after 18 hrs. The series is classed as functional. To be noted: ATCC 29213, 18 h.
The test system of a further series is Vero C1008. The series is described as follows: Cytotoxicity against African green monkey Vero E6 cells assessed as reduction in cell viability after 48 hrs by 96 aqueous one-based assay. The following applies: Chlorocebus sabaeus, Vero C1008, 48 h.
Series [3] concerns Lipid bilayer. The series is described as follows: Binding affinity to DMPG vesicles assessed as change in enthalpy by differential scanning calorimetric analysis.
The subject of series [4] is Lipid bilayer. The series is described as follows: Binding affinity to DMPG vesicles assessed as increase in width at 1/2 height of endotherm of compound containing vesicles by differential scanning calorimetric analysis. A general note: In DSC, transitions show as peaks or steps in heat flow.
Another series concerns Escherichia coli. The series is described as follows: Antibacterial activity against Escherichia coli ATCC 25922 after 18 hrs. Format: functional.
The nature of series [5]: Selectivity index, ratio of IC50 for African green monkey Vero E6 cells to MIC50 for Mycobacterium tuberculosis H37Rv ATCC 27294. Format: toxicity, Vero C1008. The following applies: read-out: Selectivity Index.
The subject of series [6] is Mycobacteroides abscessus. The series is described as follows: Antimycobacterial activity against Mycobacterium abscessus Bamboo after 3 days. The series is classed as functional. To be noted: 72 h.
Series [7] is described as follows: Aqueous solubility of compound at pH 7.4 at 25 degC after 24 hrs. Format: physicochemical. The following applies: buffer.
Series [8] in a line: Half life in rat liver microsomes preincubated for 5 mins followed by NADPH addition measured up to 45 mins by LC-MS analysis. Format: ADME, microsome. For orientation: Liver microsomes are vesicles of endoplasmic reticulum, rich in cytochrome P450 enzymes.
The subject of series [9] is Mycobacterium tuberculosis. The series is described as follows: Antimycobacterial activity against Mycobacterium tuberculosis H37Rv ATCC 27294 after 5 days by broth dilution method. Format: functional. The following applies: H37Rv ATCC 27294, 120 h.
The subject of series [10] is Mycolicibacterium smegmatis. The series is described as follows: Antimycobacterial activity against Mycobacterium smegmatis MC2 155 ATCC 700084 assessed as growth inhibition at 10 uM after 5 days relative to control. The series is classed as functional. The following applies: MC2 155 ATCC 700084, 120 h, read-out: GI.
A short description of series [11]: Therapeutic index, ratio of HC50 for human RBC to MIC50 for Mycobacterium tuberculosis H37Rv ATCC 27294.
The next series relates to Mycobacterium avium. The series is described as follows: Antimycobacterial activity against Mycobacterium avium 11 after 4 days. Format: functional. The following applies: Mycobacterium avium, 11, 96 h.
Series [12] has as its system Mycobacterium tuberculosis. The series is described as follows: Antimycobacterial activity against Mycobacterium tuberculosis H37Rv ATCC 27294 assessed as growth inhibition at 10 uM after 5 days relative to control. To be noted: H37Rv ATCC 27294, 120 h, read-out: GI. The series is classed as functional.

Broadly, the IC50 is the concentration that gives 50% inhibition. Broadly, the MIC50 is an inhibitory concentration at the 50% level, which refers to growth in some studies and to a panel of isolates in others. In general, solubility refers to the concentration that dissolves in the medium under given conditions. As a reminder, the half-life is how long it takes for the measured level to halve. As a reminder, the MIC90 is the lowest concentration that inhibits either 90% of growth or 90% of the strains tested, depending on the study. On to `CCCCCCCCn1cc(CN2CCCCCC2)c2c(F)cccc21`, for which the IC50 came to 19.2 µM in the series on HepG2 and 29.2 µM in the series with Vero C1008. Further, the Tm with Lipid bilayer [1] came to 18 °C. In addition, the values for the selectivity ratio in series [2] and in [5] were 8.3 and 12.7, respectively. For the same molecule, the MIC50 with Staphylococcus aureus is 8 µM (≈ 2.87 µg/mL); in series [6], 19 µM (≈ 6.81 µg/mL); in series [9] it was 2.3 µM (≈ 0.825 µg/mL); against Mycobacterium avium, 2 µM (≈ 0.717 µg/mL). The deltaH in the series with Lipid bilayer [3] is -5.82 kJ/mol. Moreover, the result with Lipid bilayer [4] was Active. Further, in the series on Escherichia coli, the result was inactive. The molecule further had a solubility at 24 h in series [7] of 35.9 µM (≈ 12.9 µg/mL). For the same molecule, the half-life in series [8] came out at 560 min. For the same molecule, in series [9], the MIC90 worked out at 5 µM (≈ 1.79 µg/mL). The inhibition of growth at 10 µM in [10] and in series [12] was 99% in each case. Moreover, the TI in [11] fell in the range of 15 to 30.
As to `CCCCCCCCn1cc(CN2CCC(C)CC2)c2ccc(OC)cc21`, the IC50 came out at 15.7 µM in the series on HepG2 and 32.2 µM in the series with Vero C1008. In the series on Lipid bilayer [1], the Tm is 18.9 °C. The selectivity ratio in series [2] came to 10.5; in [5], 21.5. In the series with Lipid bilayer [3], the deltaH is -6.82 kJ/mol. This molecule had a solubility at 24 h in series [7] of 44.9 µM (≈ 16.6 µg/mL). In [8], this molecule yielded a half-life of 5.5 min. The molecule also had an MIC50 in series [9] of 1.5 µM (≈ 0.556 µg/mL). Besides, the MIC90 in series [9] turned out to be 3.3 µM (≈ 1.22 µg/mL). Moreover, the inhibition of growth at 10 µM in series [10] and in [12] was 99% in each case. Besides, the TI in [11] was in the range of 15 to 30.
For `CCCCCCCCn1cc(CN2CCC3(CC2)OCCO3)c2ccc(OC)cc21`, the results for the IC50 in the series on HepG2 and with Vero C1008 were 15.7 µM and 46.1 µM, respectively. Besides, the Tm in the series with Lipid bilayer [1] amounted to 18.1 °C. Moreover, the selectivity ratio in series [2] came out at 13.1; in series [5], 38.4. Also, in the series on Lipid bilayer [3], the deltaH was -6.64 kJ/mol. Moreover, the concentration in solution in series [7] (solubility at 24 h) was 31.3 µM (≈ 13 µg/mL). Moreover, the half-life in series [8] turned out to be 27.9 min. In series [9], this molecule displayed an MIC50 of 1.2 µM (≈ 0.498 µg/mL). The molecule further had an MIC90 in [9] of 2.3 µM (≈ 0.954 µg/mL). Moreover, the inhibition of growth at 10 µM in [10] and in [12] was 99% each time. The TI in series [11] is 15 to 30.
`CCCCCCCCn1cc(CN2CCC(C)CC2)c2c(F)cccc21`: the IC50 was 15.6 µM with HepG2 and 35.2 µM with Vero C1008. The Tm in the series with Lipid bilayer [1] was 19.8 °C. The selectivity ratio in [2] stood at 5.2; in [5] it was 11.7. In addition, the deltaH with Lipid bilayer [3] is -11.3 kJ/mol. The molecule also came in with a solubility at 24 h in series [7] of 23.2 µM (≈ 8.32 µg/mL). In series [8], this molecule gave a half-life of 22.8 min. For the same molecule, the MIC50 in series [9] was 3 µM (≈ 1.08 µg/mL). The molecule also yielded an MIC90 in [9] of 6 µM (≈ 2.15 µg/mL). Further, the inhibition of growth at 10 µM in series [10] and in [12] was 99% throughout.
